Measurements from patent US20200255478A1, “NOVEL COMPOUNDS ACTIVATING THE NRF2 PATHWAY” (Almirall, S.A., priority 2017, published 2020).
Starred links: 1 amine or outer side, 2 acyl side, 3 side chain; linkers in the order of their positions; H or OH if unused. Positions of bridges follow the written chain, without caps; N, C: chain ends. Non-standard residues stand in square brackets, D forms with d. Residues, ends and D or L forms follow the SMILES beside them. *: point of attachment. Trp(2-yl) = O=C([C@H](Cc1c([*:3])[nH]c2ccccc12)N[*:1])[*:2]; X3 = O=C([C@H](Cc1ccccc1[*:3])N[*:1])[*:2]; mXylylene = c1cc(C[*:1])cc(C[*:2])c1; oXylylene = c1ccc(C[*:2])c(C[*:1])c1; X2 = c1ccc2cc(C[*:2])c(C[*:1])cc2c1; Stearoyl = CCCCCCCCCCCCCCCCCC(=O)*; βAla = NCCC(=O)O

Each molecule was assayed against Keap1-Maltose Binding Protein (MBP tag) (Homo sapiens, UniProt Q14145) (assay: Nrf2-Keap1 HTRF (TR-FRET) binding assay: displacement of biotinylated ETGE peptide from Keap1-MBP). Conditions: not given.
Chain of Keap1-Maltose Binding Protein (MBP tag) (Q14145 whole entry): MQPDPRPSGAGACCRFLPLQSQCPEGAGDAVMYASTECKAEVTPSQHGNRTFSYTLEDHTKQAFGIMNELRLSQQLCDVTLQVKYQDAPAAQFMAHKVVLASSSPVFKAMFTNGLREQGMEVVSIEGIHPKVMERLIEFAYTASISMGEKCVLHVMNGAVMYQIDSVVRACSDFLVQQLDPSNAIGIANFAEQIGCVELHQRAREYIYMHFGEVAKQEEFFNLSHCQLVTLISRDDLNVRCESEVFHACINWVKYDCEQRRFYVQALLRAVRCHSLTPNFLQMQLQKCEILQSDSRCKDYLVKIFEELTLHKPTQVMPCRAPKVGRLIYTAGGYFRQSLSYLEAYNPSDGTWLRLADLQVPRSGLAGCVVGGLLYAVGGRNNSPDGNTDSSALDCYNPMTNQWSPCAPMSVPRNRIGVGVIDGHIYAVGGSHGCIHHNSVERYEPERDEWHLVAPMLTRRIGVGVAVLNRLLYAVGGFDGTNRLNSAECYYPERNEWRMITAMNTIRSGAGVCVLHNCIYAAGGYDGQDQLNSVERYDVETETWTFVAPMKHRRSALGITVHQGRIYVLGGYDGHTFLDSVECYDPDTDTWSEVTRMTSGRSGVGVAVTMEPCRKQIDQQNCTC
For `CCCCCCCCCCCCCCCCCCCC(=O)N[C@H]1C[C@H]2C(=O)N[C@@H](CCC(N)=O)C(=O)N[C@H]3CSCc4ccccc4CSC[C@H](NC(=O)[C@H](CCC(=O)O)NC(=O)CNC(=O)[C@H]([C@@H](C)O)NC(=O)[C@H](CCC(=O)O)NC(=O)[C@@H]4CCCN4C(=O)[C@H](CC(=O)O)NC3=O)C(=O)N[C@@H](CC(C)C)C(=O)N3CCC[C@@H]3C(=O)N2C1` [Example 90, {[&^1Pro((4S)-NH-arachidyl)-Gln-Cys(&^2)-Asp-Pro-Glu-Thr-Gly-Glu-Cys(&^3)-Leu-D-Pro&^1][&^2(1,2-phenylenediyl)dimethylene&^3]}], the IC50 was under 1 nM.
In the case of `CCCCCCCCCCCC(=O)N[C@H]1C[C@H]2C(=O)N[C@@H](CCC(N)=O)C(=O)N[C@H]3CSCc4ccccc4CSC[C@H](NC(=O)[C@H](CCC(=O)O)NC(=O)CNC(=O)[C@H]([C@@H](C)O)NC(=O)[C@H](CCC(=O)O)NC(=O)[C@@H]4CCCN4C(=O)[C@H](CC(=O)O)NC3=O)C(=O)N[C@@H](CC(C)C)C(=O)N3CCC[C@@H]3C(=O)N2C1` [Example 85, {[&^1Pro((4S)-NH-Lauryl)-Gln-Cys(&^2)-Asp-Pro-Glu-Thr-Gly-Glu-Cys(&^3)-Leu-D-Pro&^1][&^2(1,2-phenylenediyl)dimethylene&^3]}], the IC50 is reported as under 1 nM.
`CCCCCCCC/C=C\CCCCCCCC(=O)N[C@H]1C[C@H]2C(=O)N[C@@H](CCC(N)=O)C(=O)N[C@H]3CSCc4ccccc4CSC[C@H](NC(=O)[C@H](CCC(=O)O)NC(=O)CNC(=O)[C@H]([C@@H](C)O)NC(=O)[C@H](CCC(=O)O)NC(=O)[C@@H]4CCCN4C(=O)[C@H](CC(=O)O)NC3=O)C(=O)N[C@@H](CC(C)C)C(=O)N3CCC[C@@H]3C(=O)N2C1` [Example 88, {[&^1Pro((4S)-NH-oleyl)-Gln-Cys(&^2)-Asp-Pro-Glu-Thr-Gly-Glu-Cys(&^3)-Leu-D-Pro&^1][&^2(1,2-phenylenediyl)dimethylene&^3]}] gave an IC50 of under 1 nM.
In the case of `CC(=O)N[C@H]1Cc2c([nH]c3ccccc23)SC[C@@H](C(N)=O)NC(=O)[C@H](CCC(=O)O)NC(=O)CNC(=O)[C@H]([C@@H](C)O)NC(=O)[C@H](CCC(=O)O)NC(=O)[C@H](CCC(=O)O)NC(=O)[C@H](CC(=O)O)NC1=O` [Example 7, Acetyl-Trp(indol-2-yl-&^1)-Asp-Glu-Glu-Thr-Gly-Glu-Cys(&^1)-NH2] (Ac-[Trp(2-yl)]DEETGEC-NH2; thioether 1-8), the IC50 is reported as 1 to 100 nM.
With `CC/C=C\C/C=C\C/C=C\CCCCCCCC(=O)N[C@H]1C[C@H]2C(=O)N[C@@H](CCC(N)=O)C(=O)N[C@H]3CSCc4ccccc4CSC[C@H](NC(=O)[C@H](CCC(=O)O)NC(=O)CNC(=O)[C@H]([C@@H](C)O)NC(=O)[C@H](CCC(=O)O)NC(=O)[C@@H]4CCCN4C(=O)[C@H](CC(=O)O)NC3=O)C(=O)N[C@@H](CC(C)C)C(=O)N3CCC[C@@H]3C(=O)N2C1` [Example 86, {[&^1Pro((4S)-NH-α-linolenyl)-Gln-Cys(&^2)-Asp-Pro-Glu-Thr-Gly-Glu-Cys(&^3)-Leu-D-Pro&^1][&^2(1,2-phenylenediyl)dimethylene&^3]}] the IC50 was under 1 nM.
For `CC(C)C[C@@H]1NC(=O)[C@@H]2CCCN2C(=O)[C@H](CC(C)C)NC(=O)[C@@H]2CSc3[nH]c4ccccc4c3C[C@H](NC(=O)[C@H](CCC(N)=O)NC1=O)C(=O)N[C@@H](CC(=O)O)C(=O)N[C@@H](CCC(=O)O)C(=O)N[C@@H](CCC(=O)O)C(=O)N[C@@H]([C@@H](C)O)C(=O)NCC(=O)N[C@@H](CCC(=O)O)C(=O)N2` [Example 11, &^1Leu-Gln-Trp(indol-2-yl-&^2)-Asp-Glu-Glu-Thr-Gly-Glu-Cys(&^2)-Leu-Pro&^1] (cyclo(CLPLQ[Trp(2-yl)]DEETGE); thioether 1-6), the IC50 was 1 to 100 nM.
Molecule `CCCCCCCCCCCCCCCCCC(=O)N[C@H]1C[C@@H](C(=O)N[C@@H](CCC(N)=O)C(=O)N[C@H]2CSCc3ccccc3CSC[C@@H](C(=O)N[C@@H](CC(C)C)C(=O)N3CCC[C@@H]3C(N)=O)NC(=O)[C@H](CCC(=O)O)NC(=O)CNC(=O)[C@H]([C@@H](C)O)NC(=O)[C@H](CCC(=O)O)NC(=O)[C@@H]3CCCN3C(=O)[C@H](CC(=O)O)NC2=O)N(C(C)=O)C1` [Example 75, {[Acetyl-Pro((4S)-NH-Stearyl)-Gln-Cys(&^1)-Asp-Pro-Glu-Thr-Gly-Glu-Cys(&^2)-Leu-D-Pro-NH2][&^1(1,2-phenylenediyl)dimethylene^2]}] has an IC50 of 1 to 100 nM.
With `CCCCCCCCCCCCCCCCCC(=O)N[C@H]1C[C@H]2C(=O)N[C@@H](CCC(N)=O)C(=O)N[C@H]3CSCC4(CCOCC4)CSC[C@H](NC(=O)[C@H](CCC(=O)O)NC(=O)CNC(=O)[C@H]([C@@H](C)O)NC(=O)[C@H](CCC(=O)O)NC(=O)[C@@H]4CCCN4C(=O)[C@H](CC(=O)O)NC3=O)C(=O)N[C@@H](CC(C)C)C(=O)N3CCC[C@@H]3C(=O)N2C1` [Example 100, {[&^1Pro((4S)-NH-Stearyl)-Gln-Cys(&^2)-Asp-Pro-Glu-Thr-Gly-Glu-Cys(&^3)-Leu-D-Pro&^1][&^2(tetrahydro-2H-pyran-4,4-diyl)dimethylene&^3]}] the IC50 was 1 to 100 nM.

Same assay, conditions: HTRF (TR-FRET); displacement of ETGE-biotin from Keap1-MBP; values banded into grades; read-out: Binding (IC50) ETGE-Keap1
`CC(=O)N[C@H]1Cc2ccccc2SC[C@@H](C(N)=O)NC(=O)[C@H](CCC(=O)O)NC(=O)CNC(=O)[C@H]([C@@H](C)O)NC(=O)[C@H](CCC(=O)O)NC(=O)[C@H](CCC(=O)O)NC(=O)[C@H](CC(=O)O)NC1=O` [Example 23, Acetyl-Phe(o-&^1)-Asp-Glu-Glu-Thr-Gly-Glu-Cys(&^1)-NH2] (Ac-[X3]DEETGEC-NH2; thioether 1-8) was tested, and the IC50 was 1 to 100 nM.
`CCCCCCCCCCCCCCCCCC(=O)NCCC(=O)N[C@@H](CC(C)C)C(=O)N[C@@H](CCC(N)=O)C(=O)N[C@H]1CSCc2cccc(c2)CSC[C@@H](C(=O)N[C@@H](CC(C)C)C(=O)N2CCC[C@H]2C(=O)O)NC(=O)[C@H](CCC(=O)O)NC(=O)CNC(=O)[C@H]([C@@H](C)O)NC(=O)[C@H](CCC(=O)O)NC(=O)[C@@H]2CCCN2C(=O)[C@H](CC(=O)O)NC1=O` [Example 37, {[Stearyl-βA1a-Leu-Gln-Cys(&^1)-Asp-Pro-Glu-Thr-Gly-Glu-Cys(&^2)-Leu-Pro-OH][&^1(1,3-phenylenediyl)dimethylene&^2]}] ({Stearoyl-βAla}-LQCDPETGECLP-OH; linker 3-10 via mXylylene) was tested, and the IC50 was 1 to 100 nM.
`CC(C)C[C@H](NC(=O)[C@@H]1CSCc2ccccc2CSC[C@H](NC(=O)[C@H](CCC(N)=O)NC(=O)[C@@H](N)CC(C)C)C(=O)N[C@@H](CC(=O)O)C(=O)N2CCC[C@H]2C(=O)N[C@@H](CCC(=O)O)C(=O)N[C@@H]([C@@H](C)O)C(=O)NCC(=O)N[C@@H](CCC(=O)O)C(=O)N1)C(=O)N1CCC[C@H]1C(=O)NCCC(=O)N[C@@H](CCCNC(=N)N)C(=O)N[C@@H](CCCCN)C(=O)N[C@@H](CCCCN)C(=O)N[C@@H](CCCNC(=N)N)C(=O)N[C@@H](CCCNC(=N)N)C(=O)N[C@@H](CCC(N)=O)C(=O)N[C@@H](CCCNC(=N)N)C(=O)N[C@@H](CCCNC(=N)N)C(=O)N[C@@H](CCCNC(=N)N)C(N)=O` [Example 34] was tested, and the IC50 was 1 to 100 nM.
`CC(C)C[C@H](NC(=O)[C@@H]1CSCc2ccccc2CSC[C@H](NC(=O)[C@H](CCC(N)=O)NC(=O)[C@@H](N)CC(C)C)C(=O)N[C@@H](CC(=O)O)C(=O)N[C@@H](C)C(=O)N[C@@H](CCC(=O)O)C(=O)N[C@@H]([C@@H](C)O)C(=O)NCC(=O)N[C@@H](CCC(=O)O)C(=O)N1)C(=O)N1CCC[C@H]1C(=O)NCCC(=O)N[C@@H](CCCNC(=N)N)C(=O)N[C@@H](CCCCN)C(=O)N[C@@H](CCCCN)C(=O)N[C@@H](CCCNC(=N)N)C(=O)N[C@@H](CCCNC(=N)N)C(=O)N[C@@H](CCC(N)=O)C(=O)N[C@@H](CCCNC(=N)N)C(=O)N[C@@H](CCCNC(=N)N)C(=O)N[C@@H](CCCNC(=N)N)C(N)=O` [Example 18] showed an IC50 of 1 to 100 nM.
Work on `CC(C)C[C@H](NC(=O)[C@@H]1CSCc2ccccc2CSC[C@H](NC(=O)[C@H](CCC(N)=O)NC(=O)[C@@H](N)CC(C)C)C(=O)N[C@@H](CC(=O)O)C(=O)N[C@@H](C)C(=O)N[C@@H](CCC(=O)O)C(=O)N[C@@H]([C@@H](C)O)C(=O)NCC(=O)N[C@@H](CCC(=O)O)C(=O)N1)C(=O)N1CCC[C@H]1C(=O)O` [Example 19, {[H-Leu-Gln-Cys(&^1)-Asp-Ala-Glu-Thr-Gly-Glu-Cys(&^2)-Leu-Pro-OH][&^1(1,2-phenylenediyl)dimethylene&^2]}] (H-LQCDAETGECLP-OH; linker 3-10 via oXylylene) yielded an IC50 of 1 to 100 nM.
In the case of `CC(C)C[C@H](NC(=O)[C@@H]1CSCc2cc3ccccc3cc2CSC[C@H](NC(=O)[C@H](CCC(N)=O)NC(=O)[C@@H](N)CC(C)C)C(=O)N[C@@H](CC(=O)O)C(=O)N2CCC[C@H]2C(=O)N[C@@H](CCC(=O)O)C(=O)N[C@@H]([C@@H](C)O)C(=O)NCC(=O)N[C@@H](CCC(=O)O)C(=O)N1)C(=O)N1CCC[C@H]1C(=O)NCCC(=O)N[C@@H](CCCNC(=N)N)C(=O)N[C@@H](CCCNC(=N)N)C(=O)N[C@@H](CCCNC(=N)N)C(=O)N[C@@H](CCCNC(=N)N)C(=O)N[C@@H](CCCNC(=N)N)C(=O)N[C@@H](CCCNC(=N)N)C(=O)N[C@@H](CCCNC(=N)N)C(=O)N[C@@H](CCCNC(=N)N)C(=O)N[C@@H](CCCNC(=N)N)C(=O)N[C@@H](CCCNC(=N)N)C(N)=O` [Example 69, {[H-Leu-G1n-Cys(&^1)-Asp-Pro-Glu-Thr-Gly-Glu-Cys(&^2)-Leu-Pro-βAla-Arg10-NH2][&^1(naphthalene)2,3-diyldimethylene&^2]}], the IC50 is reported as 1 to 100 nM.
With `CC(=O)N[C@H]1CSCc2cc3ccccc3cc2CSC[C@@H](C(N)=O)NC(=O)[C@H](CCC(=O)O)NC(=O)CNC(=O)[C@H]([C@@H](C)O)NC(=O)[C@H](CCC(=O)O)NC(=O)[C@H](CCC(=O)O)NC(=O)[C@H](CC(=O)O)NC1=O` [Example 27, {[Acetyl-Cys(&^1)-Asp-Glu-Glu-Thr-Gly-Glu-Cys(&^2)-NH2][&^1(naphthalene)2,3-diyldimethylene&^2]}] (Ac-CDEETGEC-NH2; linker 1-8 via X2) the IC50 was 1 to 100 nM.
With `CCCCCCCCCCCCCCCCCC(=O)NCCC(=O)N[C@@H](CC(C)C)C(=O)N[C@@H](CCC(N)=O)C(=O)N[C@H]1CSCc2ccccc2CSC[C@@H](C(=O)N[C@@H](CC(C)C)C(=O)N2CCC[C@H]2C(=O)O)NC(=O)[C@H](CCC(=O)O)NC(=O)CNC(=O)[C@H]([C@@H](C)O)NC(=O)[C@H](CCC(=O)O)NC(=O)[C@@H]2CCCN2C(=O)[C@H](CC(=O)O)NC1=O` [Example 35, {[Stearyl-βAla-Leu-Gln-Cys(&^1)-Asp-Pro-Glu-Thr-Gly-G1u-Cys(&^2)-Leu-Pro-OH][&^1(1,2-phenylenediyl)dimethylene&^2]}] ({Stearoyl-βAla}-LQCDPETGECLP-OH; linker 3-10 via oXylylene) the IC50 was 1 to 100 nM.
